Test results taken from patent US20220202792A1, “METHODS AND COMPOSITIONS FOR TREATING CHRONIC INFLAMMATORY INJURY, METAPLASIA, DYSPLASIA AND CANCERS OF EPITHELIAL TISSUES” (University of Houston System, priority 2019, published 2022).
Entries after “also recorded” stand apart in the source; their conditions may differ.

Assays:
[1] = test system: esophageal squamous stem cells (ESO stem cells, Krt5+); assay: High throughput chemical screening and dose response on GFP-labeled stem cells; assay type: cell-based, human; details: for effect on Esophageal stem cells: in the presence of 1 μM Ponatinib
[2] = test system: Barrett's stem cells (BE stem cells, Krt7+); assay: as above; assay type: cell-based, human; details: for lethality towards Barrett's stem cells: screened in the background of 1 μM Ponatinib
3T3-J2 feeder cells = assay: Lethality of feeder cells during treatment; assay type: cell-based; details: combination with Ponatinib
Procedure: It was next hypothesized that one chemical in our libraries could function with Ponatinib in a synergistic manner to specifically eradicate Barrett's stem cells while protecting and promoting esophageal stem cells. The same libraries were screened in the background of 1 μM Ponatinib. […] Among them, Adefovir Dipivoxil is a FDA approved drug, CEP-18770 and Qizartinib are in clinical trials. […] Their differential effects on Barrett's stem cells and Esophageal stem cells were validated in a dosage dependent manner (FIG. 2C; FIG. 3F).
The GFP-tagged cell lines will be seeded on multiple 384 well plates (Griener Bio-One, USA) (varying according to number of compounds in a library) with a feeder layer of irradiated 3T3-J2 fibroblast cells. The stem cell will be allowed to grow until they divide to become 4-5 cells within a colony. Afterwards they will be transported for treatment with selected chemical library (1 μM) to High Throughput Research and Screening Center at Institute of Biosciences and Technology (Houston, Tex.), Texas A&M University. Positive and negative control lanes will be allocated within each plate. […] The cells will be allowed to grow for 6 days at 37° C., 7.5% CO2 incubator after treatment. After the cells in the control lanes are at good confluency, the cells will be prepared for imaging. […]

human GSK3α = human GSK3α (Homo sapiens, UniProt P49840); details: cited from earlier work
Sequence of human GSK3α (P49840 whole entry): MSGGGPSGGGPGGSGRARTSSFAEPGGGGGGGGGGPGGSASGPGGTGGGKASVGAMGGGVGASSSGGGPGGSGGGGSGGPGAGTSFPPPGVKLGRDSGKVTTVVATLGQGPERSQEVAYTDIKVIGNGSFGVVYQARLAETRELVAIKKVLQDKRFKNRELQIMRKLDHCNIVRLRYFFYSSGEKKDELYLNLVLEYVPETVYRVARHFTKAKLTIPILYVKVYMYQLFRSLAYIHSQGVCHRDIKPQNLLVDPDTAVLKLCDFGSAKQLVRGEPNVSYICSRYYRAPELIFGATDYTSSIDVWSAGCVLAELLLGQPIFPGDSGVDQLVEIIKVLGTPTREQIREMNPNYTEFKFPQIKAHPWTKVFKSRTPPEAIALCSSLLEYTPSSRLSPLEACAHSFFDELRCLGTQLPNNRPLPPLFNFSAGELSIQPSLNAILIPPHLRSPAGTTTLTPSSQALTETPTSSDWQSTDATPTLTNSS

STAT1 = molecular target: T1, STAT1 (Homo sapiens, UniProt P42224); details: cited from earlier work
T1 sequence (P42224 1-750): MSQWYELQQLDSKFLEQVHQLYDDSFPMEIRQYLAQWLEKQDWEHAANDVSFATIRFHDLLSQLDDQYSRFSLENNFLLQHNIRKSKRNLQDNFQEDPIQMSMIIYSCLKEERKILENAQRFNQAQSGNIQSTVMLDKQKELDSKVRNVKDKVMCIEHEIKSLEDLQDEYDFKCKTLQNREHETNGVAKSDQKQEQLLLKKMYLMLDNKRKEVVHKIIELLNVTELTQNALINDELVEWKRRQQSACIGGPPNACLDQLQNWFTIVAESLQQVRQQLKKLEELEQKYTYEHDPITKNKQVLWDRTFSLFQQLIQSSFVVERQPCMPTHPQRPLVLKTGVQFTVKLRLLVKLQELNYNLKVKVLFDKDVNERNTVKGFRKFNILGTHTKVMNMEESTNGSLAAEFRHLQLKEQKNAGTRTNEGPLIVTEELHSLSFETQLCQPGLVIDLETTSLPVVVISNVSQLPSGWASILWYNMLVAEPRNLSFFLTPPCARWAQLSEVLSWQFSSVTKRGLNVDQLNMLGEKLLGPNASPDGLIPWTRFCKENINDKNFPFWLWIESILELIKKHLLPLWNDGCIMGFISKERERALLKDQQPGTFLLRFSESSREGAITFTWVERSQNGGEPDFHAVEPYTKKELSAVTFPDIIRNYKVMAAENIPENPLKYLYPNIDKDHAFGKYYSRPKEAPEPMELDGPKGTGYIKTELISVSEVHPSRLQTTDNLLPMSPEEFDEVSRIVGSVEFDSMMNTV

[3] = test system: tryptic and peptidylglutamyl activities of the proteosome; details: cited from earlier work
[4] = test system: Barrett's, dysplasia or EAC stem cells; assay: Co-culture of esophageal stem cells with Barrett's, dysplasia or EAC stem cells; assay type: cell-based, human; details: together with 1 μM Ponatinib
Procedure: FIG. 6. Patient-matched BE, dysplasia and cancer stem cells (Krt7+, Green) were mixed with Krt5+ (red) ESO cells and co-cultured for five days and then treated with seven selected drugs together with 1 μM Ponatinib.
BE has been known to be the precursor of the dysplastic and cancerous lesions of EAC. […] Moreover, PCA analysis of Barrett's stem cells derived from 12 patients together with dysplasia, cancer and Esophageal squamous stem cells confirmed that the stem cells of dysplasia and cancer shared very similar gene expression with Barrett's stem cells (FIGS. 4A & B). […] The effects of the eight drug hits in combination with Ponatinib were tested in the cell culture of co-seeding esophageal stem cells and Barrett's, dysplasia or EAC stem cells. […] Given these three entities always co-exist in patients with EAC, our strategies of eradicating all of them could help to eliminate the chance of recurrence of EAC patients drastically.

[5] = test system: Barrett's stem cells and esophageal squamous stem cells xenograft; assay: Mouse xenograft of co-injected esophageal squamous and GFP labeled Barrett's stem cells; assay type: in vivo, mice
Excerpt: The effect of these chemicals on BE in a xenograft model was further examined. The esophageal squamous stem cells and GFP labeled Barrett's stem cells were mixed and co-injected into the immunodeficient mice. […] Two weeks following the treatment, the xenografts were collected and examined through histology analysis and clonogenic analysis.

[6] = test system: chymotrypsin-like activity of the proteasome; details: cellular; cited from earlier work
[7] = test system: dysplasia and cancer stem cells; assay: Mice xenografted with dysplasia and cancer stem cells; assay type: in vivo; details: with Ponatinib
Excerpt: FIG. 5C. Schematic of in vivo validation of drug combinations in mice xenografted with dysplasia and cancer stem cells. Following the treatment, the xenografts were processed for histological analysis or clonogenic assays to detect the existence of stem cells.

[8] = test system: Barrett's stem cells (GFP) and esophageal squamous stem cells (RFP); assay: 3D air-liquid interface (ALI) co-culture of Barrett's and esophageal stem cells; assay type: cell-based, human; details: in the presence of Ponatinib
Procedure: A 3D culture model was generated to mimic Barrett's Esophagus in vitro. The esophageal squamous stem cells and Barrett's stem cells were co-cultured in the transwell insert. Following the creation of air-liquid interface, it was observed that the BE islands located among well-differentiated squamous epithelium that well recapitulated the histology of human BE in the patient. Given the similarity of this artificial model and human pathology, the hits were tested in this system to further validate them. […] The esophageal squamous stem cells were labeled with red fluorescent protein (RFP) while Barrett's stem cells were labeled with green fluorescent protein (GFP). Without the treatment, it was observed that a mixture of GFP and RFP labeled cells in culture.

[9] = test system: BE, dysplasia and cancer stem cells; assay: 3D (ALI) culture of patient-matched BE, dysplasia and cancer stem cells; assay type: cell-based, human; details: combined with Ponatinib
Excerpt: FIG. 5B. Left, Scanned images of top view of BE, dysplasia and cancer stem cells (green) generated ALI structures in the presence of absence of drug combinations.

[10] = test system: chymotrypsin-like activity of proteasome; details: cited from earlier work
[11] = test system: Barrett's stem cells and Esophageal stem cells; assay: Co-culture of Barrett's stem cell lines and Esophageal stem cells; assay type: cell-based, human; details: in the presence of Ponatinib
[12] = test system: taxol-resistant ovarian stem cells; assay: Killing of taxol-resistant ovarian stem cells in vitro; assay type: cell-based; details: combination with ponatinib
[13] = test system: taxol-resistant ovarian stem cells; assay: Taxol-resistant ovarian stem cell xenograft animal models; assay type: in vivo; details: combination with ponatinib
[14] = molecular target: ERBB2 phosphorylation (T798I) (Homo sapiens, UniProt P04626, T798I); details: cited from earlier work
Sequence of ERBB2 phosphorylation (T798I) (P04626 23-1255 T798I): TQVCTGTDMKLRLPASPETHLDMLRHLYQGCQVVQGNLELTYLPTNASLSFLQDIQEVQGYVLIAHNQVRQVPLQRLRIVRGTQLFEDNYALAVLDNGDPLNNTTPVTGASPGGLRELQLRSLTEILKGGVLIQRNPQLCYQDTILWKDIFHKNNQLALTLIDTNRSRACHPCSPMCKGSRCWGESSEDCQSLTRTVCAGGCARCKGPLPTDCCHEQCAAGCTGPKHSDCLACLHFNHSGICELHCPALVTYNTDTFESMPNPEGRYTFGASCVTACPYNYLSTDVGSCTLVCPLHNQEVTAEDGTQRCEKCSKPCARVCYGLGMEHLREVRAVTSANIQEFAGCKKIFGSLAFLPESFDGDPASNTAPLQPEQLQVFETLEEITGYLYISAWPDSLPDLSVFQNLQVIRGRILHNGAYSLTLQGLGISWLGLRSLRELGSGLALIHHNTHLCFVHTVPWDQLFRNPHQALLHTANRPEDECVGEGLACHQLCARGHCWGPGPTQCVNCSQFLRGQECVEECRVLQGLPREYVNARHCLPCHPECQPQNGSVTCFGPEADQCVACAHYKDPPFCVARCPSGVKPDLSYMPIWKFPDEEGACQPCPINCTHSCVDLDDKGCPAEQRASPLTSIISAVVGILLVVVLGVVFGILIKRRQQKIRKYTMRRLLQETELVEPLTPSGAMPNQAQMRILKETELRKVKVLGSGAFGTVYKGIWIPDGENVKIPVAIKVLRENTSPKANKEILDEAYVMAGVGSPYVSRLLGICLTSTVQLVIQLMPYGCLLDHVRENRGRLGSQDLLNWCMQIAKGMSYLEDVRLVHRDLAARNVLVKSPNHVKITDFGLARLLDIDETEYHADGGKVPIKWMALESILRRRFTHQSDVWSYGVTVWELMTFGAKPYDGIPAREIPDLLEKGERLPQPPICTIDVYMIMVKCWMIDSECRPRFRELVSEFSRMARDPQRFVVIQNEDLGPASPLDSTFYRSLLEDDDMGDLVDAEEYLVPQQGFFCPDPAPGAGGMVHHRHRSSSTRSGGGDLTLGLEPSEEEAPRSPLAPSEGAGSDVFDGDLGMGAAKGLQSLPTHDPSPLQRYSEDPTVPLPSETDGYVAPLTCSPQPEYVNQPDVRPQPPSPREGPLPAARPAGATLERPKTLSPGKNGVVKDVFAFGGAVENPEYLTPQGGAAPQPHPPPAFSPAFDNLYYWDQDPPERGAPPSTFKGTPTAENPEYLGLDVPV

CO[C@H]1CC[C@@H](O[C@H]2C[C@H]([C@]3(C)CC[C@]4(C[C@H](O)[C@@H](C)[C@@H]([C@@H](C)/C=C(\C)C(=O)[C@H](C)C[C@H](C)C(=O)O)O4)O3)O[C@]3(O[C@@H]([C@H]4O[C@@](O)(CO)[C@H](C)C[C@@H]4C)C[C@@H]3C)[C@@H]2C)O[C@H]1C [Nanchangmycin]
effect on Esophageal stem cells [1]: without affecting
lethality towards Barrett's stem cells [2]: displayed the lethality
lethality of 3T3-J2 feeder cells during the treatment (3T3-J2 feeder cells): high lethality

N#Cc1ccc2[nH]c(O)c(-c3ccc(CN4CCOCC4)cn3)c2c1 [AZD1080]
effect on Esophageal stem cells [1]: without affecting
lethality towards Barrett's stem cells [2]: displayed the lethality
differential effects on BE and ESO stem cells, validation over a range of dosages ([2]; together with 1 μM Ponatinib): appeared to be the false positive hit in the screening
Ki (human GSK3α): 6.9 nM

O=[N+]([O-])c1ccc2c(c1)S(=O)(=O)C=C2 [Stattic]
effect on Esophageal stem cells [1]: without affecting
lethality towards Barrett's stem cells [2]: displayed the lethality
selectivity over STAT1 (STAT1): highly selectivity

CC(C)C[C@H](NC(=O)[C@@H](NC(=O)c1cccc(-c2ccccc2)n1)[C@@H](C)O)B(O)O [CEP-18770, [(1R)-1-[[(2S,3R)-3-hydroxy-2-[(6-phenylpyridine-2-carbonyl)amino]butanoyl]amino]-3-methylbutyl]boronic acid]
inhibition of the tryptic and peptidylglutamyl activities of the proteosome [3]: only marginal inhibition
effect on Esophageal stem cells [1]: without affecting
growth of BE, dysplasia and cancer stem cells in co-culture with ESO cells [4]: most effective
BE stem cells in treated structures (histological analysis) ([5]; NSG mice, with Ponatinib): not detected
Krt5+ ESO structures in treated samples ([5]; NSG mice, with Ponatinib): visibly more robust
clonogenic Barrett's stem cells from xenografts ([5]; combination with Ponatinib, clonogenic analysis): lack of clonogenic Barrett's stem cells
Barrett's structures in xenografts (histology) ([5]; combination with Ponatinib, intraperitoneally, two weeks following the treatment): total loss
IC50 [6]: 3.8 nM
differential of dose-response curves, BE stem cells versus normal esophageal stem cells ([2]; in the background of a fixed concentration of Ponatinib): ~1,000 fold
lethality towards Barrett's stem cells [2]: displayed the lethality
Dysplastic structures (Krt7+/Ki67+) in xenografts [7]: diminished
eradication of precancerous, dysplastic and cancerous stem cells in mouse xenograft models [7]: eradicate
stem cells cloned from treated dysplastic structures (rhodamine staining) [7]: not cloned
cross sections of the ALI structures [8]: intact esophageal squamous epithelium without any existence of Barrett's epithelium
GFP labeled Barrett's stem cells in 3D ALI co-culture ([8]; eight Barrett's stem cell lines): disappearance
eradication of BE, dysplasia and cancer stem cells in 3D (ALI) culture [9]: eradicate
IC50 [10]: 3.8 nM
effect on Esophageal squamous stem cells in co-culture [11]: promoting
lethality to Barrett's stem cells in co-culture ([11]; nine Barrett's stem cell lines): uniform lethality to all Barrett's stem cells

CC(=O)O[C@H]1C(=O)[C@@]2(C)[C@H]([C@H](OC(=O)c3ccccc3)[C@]3(O)C[C@H](OC(=O)[C@H](O)[C@@H](NC(=O)c4ccccc4)c4ccccc4)C(C)=C1C3(C)C)[C@]1(OC(C)=O)CO[C@@H]1C[C@@H]2O [taxol]
killing taxol-resistant ovarian stem cells [12]: synergy
tumor volume [13]: reducing tumor volume

C=CC(=O)Nc1cccc(Sc2nc(Nc3ccc(N4CCN(C)CC4)cc3)ncc2Cl)c1 [WZ8040]
effect on Esophageal stem cells [1]: without affecting
lethality towards Barrett's stem cells [2]: displayed the lethality
inhibition of ERBB2 phosphorylation (T798I) [14]: does not inhibit

CC(C)(C)c1cc(NC(=O)Nc2ccc(-c3cn4c(n3)sc3cc(OCCN5CCOCC5)ccc34)cc2)no1 [Quizartinib]
effect on Esophageal stem cells [1]: without affecting
lethality towards Barrett's stem cells [2]: displayed the lethality

Cc1ccc(C(=O)Nc2ccc(CN3CCN(C)CC3)c(C(F)(F)F)c2)cc1C#Cc1cnc2cccnn12 [Ponatinib]
proliferation of esophageal stem cells ([1]; single agent screening): promoted the proliferation; also recorded: significantly increase the proliferation
survival of Barrett's stem cells ([2]; single agent screening): slightly decreasing the survival

CC(C)(C)C(=O)OCOP(=O)(COCCn1cnc2c(N)ncnc21)OCOC(=O)C(C)(C)C [Adefovir Dipivoxil]
effect on Esophageal stem cells [1]: without affecting
lethality towards Barrett's stem cells [2]: displayed the lethality
